Experimental data taken from patent US20030176436A1, “Novel heterocyclic compounds as selective bacterial DHFR inhibitors and their uses thereof” (priority 2001, published 2003).
Converted amounts (≈) assume the structure as drawn.

Experiments:
bacterial DHFR (bDHFR) = molecular target: T1, bacterial DHFR (bDHFR) (Escherichia coli, UniProt P0ABQ4); assay: DHFR enzyme assay, Ki determination, bacterial DHFR; type: biochemical, E. coli; conditions: Table 3; read-out: bDHFR Ki
T1 construct: gift of Eric Brown, McMaster University
Description: Human and Bacterial DHFR: E. coli DHFR was kindly provided by Eric Brown of MacMaster University.
(§1) Dihydrofolic acid and NADPH were purchased from Sigma. Enzyme assays were adapted for microtitre format from a previously published procedure (2, 3). All assays were performed in a 250 μl volume in 96-well microtitre plates. Typical assays consisted of 20 nM DHFR (human or E. coli), 100 μM NADPH, and 50 μM dihydrofolic acid in 100 mM HEPES pH 8, 10 mM KCl, and 10 mM MgCl2. The assay was monitored spectrophotometrically for the conversion of NADPH to NADP+, which results in a decrease in absorbance at 340 nm.
(§2) The reaction was initiated by the addition of 125 μl of 100 μM dihydrofolic acid. The final concentrations in the assay were 20 nM DHFR, 100 μM NADPH, 50 μM dihydrofolic acid, and a range of 500 μM to 20 nM inhibitor compound. The final DMSO concentration was 2% of the total volume. Reactions were monitored as described above.

human DHFR (hDHFR) = molecular target: T2, human DHFR (hDHFR) (Homo sapiens, UniProt P00374); assay: DHFR enzyme assay, Ki determination, human DHFR; type: biochemical; conditions: Table 3
T2 construct: result in the amplification of a 186 amino acid hDHFR coding region; made in house; host or cells: E. coli Top10
T2 sequence (P00374 1-187): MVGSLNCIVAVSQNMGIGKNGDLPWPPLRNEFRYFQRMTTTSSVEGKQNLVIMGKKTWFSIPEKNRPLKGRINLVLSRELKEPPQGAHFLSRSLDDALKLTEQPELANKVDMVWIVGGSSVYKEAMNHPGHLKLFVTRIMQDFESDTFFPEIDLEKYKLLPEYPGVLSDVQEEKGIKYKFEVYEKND
Description: The human DHFR cDNA was cloned by PCR from the Human Universal Quick-clone™ cDNA purchased from Clontech.
The PCR fragment was digested with restriction enzymes NdeI and HindIII, and then ligated into a derivative of the pKK223-3 expression vector (Amersham Pharmacia). The final expression vector (pFW96.2) was transformed into E. coli Top10 F40 and hDHFR protein was induced by the addition of 1 mM IPTG followed by incubation at 37° C. for 4 hrs. Recombinant human DHFR was purified based on a previously published procedure (2).
as §1
as §2, with “Five microliters of inhibitor compound in DMSO was added to 120 μl of enzyme solution (40 nM DHFR and 200 μM NADPH). The reaction” for “The reaction”
V=(Vmax[S])/(Km(1+I/Ki)+[S]), where S=dihydrofolate, Km=Michaelis constant for dihydrofolate, I=inhibitor concentration.

E. coli = assay: Microdilution antimicrobial susceptibility test (MIC); type: cell-based; conditions: Escherichia coli; Table 2; 90% inhibition of growth
Description: (§3) Stock solutions of tested compounds were prepared in N,N-dimethylformamide (DMF) at a concentration of 5 mg/mL. Working solutions of the tested compounds were then prepared from the stock solutions, in Mueller-Hinton broth (MHB) with a starting concentration of 64 μg/mL.
(§4) Bacterial inocula were prepared from overnight culture (i.e., one fresh colony from agar plate in 5 ml MHB; H. influenzae was grown in MHB with the addition of yeast extract, haematin, and NAD), centrifuged 2×5 min/3000 rpm (for S. pneumoniae and H. influenzae, 2×10 min/3000 rpm), and dispensed in 5 ml of fresh MHB each time, such that the bacterial suspension is diluted to obtain 100 colony forming units (cfu) in a microplate well (100 μl total volume).
(§5) Microplate wells were filled with two-fold dilutions of test compound (50 μl), starting with 64 μg/ml. Wells were then filled with 50 μl of bacterial inoculum (final volume: 100 μl/well). The plates were incubated at 37° C. for 18-24 hours (S. pneumoniae was grown in a CO2-enriched atmosphere).

E. faecalis = assay: as above; type: cell-based; conditions: Enterococcus faecalis; Table 2; 90% inhibition of growth
Description: as §3, §4, §5

H. influenzae = assay: as above; type: cell-based; conditions: Haemophilus influenzae; Table 2; 90% inhibition of growth; read-out: MIC H. influenzae
Description: as §3, §4, §5

M. catarrhalis = assay: as above; type: cell-based; conditions: Moraxella catarrhalis; Table 2; 90% inhibition of growth
Description: as §3, §4, §5

P. aeruginosa = assay: as above; type: cell-based; conditions: Pseudomonas aeruginosa; Table 2; 90% inhibition of growth
Description: as §3, §4, §5

S. aureus = assay: as above; type: cell-based; conditions: Staphylococcus aureus; Table 2; 90% inhibition of growth; read-out: MIC S. aureus
Description: as §3, §4, §5

S. pneumoniae = assay: as above; type: cell-based; conditions: Streptococcus pneumoniae; Table 2; 90% inhibition of growth
Description: as §3, §4, §5

S. cerevisiae = assay: Microdilution susceptibility test (MIC), yeast as indicator of cytotoxicity; type: cell-based; conditions: Saccharomyces cerevisiae; Table 2; 90% inhibition of growth
Description: The following table of compounds of one aspect of the invention have potent antimicrobial activity against S. aureus bacteria and are anticipated to have physical-chemical properties similar to those of orally absorbed and bioavailable drugs and drug-like compounds. Antibacterial activity for a variety of bacterial species are shown (S. aureus, S. pneumoniae, E. faecalis, M. catarrhalis, and H. influenzae). The yeast cell (S. cerevisiae) in this panel of organisms is an indicator of potential cytotoxicity in mammalian cells.
as §3, §5

Compound	Ki (bacterial DHFR (bDHFR)) [µM]	Ki (human DHFR (hDHFR)) [µM]	MIC (E. coli) [mg/L]	MIC (E. faecalis) [mg/L]	MIC (H. influenzae) [mg/L]	MIC (M. catarrhalis) [mg/L]	MIC (P. aeruginosa) [mg/L]	MIC (S. aureus) [mg/L]	MIC (S. pneumoniae) [mg/L]	MIC (S. cerevisiae) [mg/L]
CN(Cc1cnc2nc(N)nc(N)c2n1)c1ccc(C(=O)Nc2ccc(O)cc2)cc1 [Compound 1]	< 0.1	0.5 to 0.999	> 64	16 to 64 (≈ 38.4 to 154 µM)	2 to 8 (≈ 4.8 to 19.2 µM)	2 to 8 (≈ 4.8 to 19.2 µM)	> 64	16 to 64 (≈ 38.4 to 154 µM)	< 2	> 64
CN(Cc1cnc2nc(N)nc(N)c2n1)c1ccc(C(=O)NCc2ccccn2)cc1 [Compound 3]	< 0.1	1 to 5	> 64	2 to 8 (≈ 4.81 to 19.3 µM)	2 to 8 (≈ 4.81 to 19.3 µM)	2 to 8 (≈ 4.81 to 19.3 µM)	> 64	2 to 8 (≈ 4.81 to 19.3 µM)	2 to 8 (≈ 4.81 to 19.3 µM)	> 64
CN(Cc1cnc2nc(N)nc(N)c2n1)c1ccc(C(=O)NCc2cccnc2)cc1 [Compound 4]	< 0.1	0.5 to 0.999	> 64	2 to 8 (≈ 4.81 to 19.3 µM)	2 to 8 (≈ 4.81 to 19.3 µM)	16 to 64 (≈ 38.5 to 154 µM)	> 64	16 to 64 (≈ 38.5 to 154 µM)	2 to 8 (≈ 4.81 to 19.3 µM)	> 64
CN(Cc1cnc2nc(N)nc(N)c2n1)c1ccc(C(=O)NCc2ccncc2)cc1 [Compound 5]	< 0.1	0.5 to 0.999	> 64	2 to 8 (≈ 4.81 to 19.3 µM)	2 to 8 (≈ 4.81 to 19.3 µM)	2 to 8 (≈ 4.81 to 19.3 µM)	> 64	16 to 64 (≈ 38.5 to 154 µM)	2 to 8 (≈ 4.81 to 19.3 µM)	> 64
Nc1nc(N)c2nc(CNc3ccccc3)cnc2n1 [Compound 6]	1 to 5	> 5	> 64	2 to 8 (≈ 7.48 to 29.9 µM)	2 to 8 (≈ 7.48 to 29.9 µM)	2 to 8 (≈ 7.48 to 29.9 µM)	> 64	2 to 8 (≈ 7.48 to 29.9 µM)	2 to 8 (≈ 7.48 to 29.9 µM)	> 64
Nc1nc(N)c2nc(CNc3cccc([N+](=O)[O-])c3)cnc2n1 [Compound 7]	0.1 to 0.499	> 5	> 64	< 2	< 2	< 2	> 64	< 2	< 2	> 64
Nc1nc(N)c2nc(CNc3ccc4c(c3)OCO4)cnc2n1 [Compound 8]	1 to 5	> 5	> 64	2 to 8 (≈ 6.42 to 25.7 µM)	2 to 8 (≈ 6.42 to 25.7 µM)	2 to 8 (≈ 6.42 to 25.7 µM)	> 64	2 to 8 (≈ 6.42 to 25.7 µM)	2 to 8 (≈ 6.42 to 25.7 µM)	> 64
CN(Cc1cnc2nc(N)nc(N)c2n1)c1ccccc1 [Compound 9]	0.1 to 0.499	> 5	> 64	< 2	< 2	2 to 8 (≈ 7.11 to 28.4 µM)	> 64	2 to 8 (≈ 7.11 to 28.4 µM)	< 2	> 64
